Reference: PMC11231114 (EJNMMI Research, 2024)
Values joined by “and” are separate entries in the source; they are usually repeats but may differ in a detail not shown here. Equal entries are not always repeated.

Tests used:
[1] = Blood activity clearance and pharmacokinetic parameters of radiolabelled compounds; format: in vivo; conditions: radiolabelled compound, rat
Protocol: Approximately 0.2 mL/31.1 MBq of compound was administered i.v. At established time points after injection (15 min, 30 min, 1 h, 2 h, 4 h and 6 h), the animals were euthanized by cervical dislocation and dissected. Selected organs and tissues were weighed, and their radioactivity was measured using a NaI(Tl) crystal gamma counter. The results were adjusted for the radioactive decay of ^18F. The physiological distribution was calculated and expressed in terms of the percentage of administrated dose found in each of the selected organs (%ID) or per gram of tissues/organ (%ID/g) with suitable standards of the injected dose.
For [^18F]SYN2 the initial fast decrease mainly represents the equilibrium between the intravascular and extravascular components, and the second slower phase represents the metabolism.

[2] = Dosimetry: human absorbed dose extrapolated from rat biodistribution (OLINDA/EXM); conditions: human estimate extrapolated from rats
Description: The pharmacokinetics data from ex vivo biodistribution studies in rats were extrapolated to humans using the simplest allometric scaling model to estimate an effective dose in mSv/MBq. The dose calculation was done using computer software for internal dose assessment OLINDA/EXM® (Version 1.1, copyright Vanderbilt University, 2007).
This work estimated the human absorbed radiation dose based on a detailed description of activity organ distribution data for normal rats. […] Additionally, the obtained theoretical values for examined cardiotracers were compared with [^18F]flurpiridaz absorbed dose calculated in exercise stress subjects in humans (Table 6).

## CN(C)c1ccc2cc3ccc(N(C)C)cc3[n+](CC[18F])c2c1 [[^18F]SYN2]
[1]; i.v.
  AUCt: 421 ng·h/mL
  Cl: 0.012 L/h/kg
  Cmax: 76.39 ng/mL
  Tmax: 0 h
  Vz: 1.43 L/kg
[1]; calculated from Eq. (0.693 · VZ · AUC)/dose
  T½: 79.9 h
[2]
  Absorbed dose per administrated activity, Adrenals: 8.06E-03 mSv/MBq
  Absorbed dose per administrated activity, Brain: 2.84E-03 mSv/MBq
  Absorbed dose per administrated activity, Breasts: 2.93E-03 mSv/MBq
  Absorbed dose per administrated activity, Gallbladder Wall: 8.01E-03 mSv/MBq
  Absorbed dose per administrated activity, Heart Wall: 0.0415 mSv/MBq and 0.042 mSv/MBq and 4.15E-02 mSv/MBq
  Absorbed dose per administrated activity, Kidneys: 0.0704 mSv/MBq and 0.070 mSv/MBq and 7.04E-02 mSv/MBq
  Absorbed dose per administrated activity, Liver: 1.17E-02 mSv/MBq
  Absorbed dose per administrated activity, Lower Large Intestine Wall: 1.18E-02 mSv/MBq
  Absorbed dose per administrated activity, Lungs: 2.16E-02 mSv/MBq
  Absorbed dose per administrated activity, Muscle: 1.03E-02 mSv/MBq
  Absorbed dose per administrated activity, Osteogenic Cells: 4.02E-03 mSv/MBq
  Absorbed dose per administrated activity, Ovaries: 7.10E-03 mSv/MBq
  Absorbed dose per administrated activity, Pancreas: 0.0285 mSv/MBq and 2.85E-02 mSv/MBq
  Absorbed dose per administrated activity, Red Marrow: 4.77E-03 mSv/MBq
  Absorbed dose per administrated activity, Skin: 2.65E-03 mSv/MBq
  Absorbed dose per administrated activity, Small Intestine: 1.84E-02 mSv/MBq
  Absorbed dose per administrated activity, Spleen: 2.13E-02 mSv/MBq
  Absorbed dose per administrated activity, Stomach Wall: 1.19E-02 mSv/MBq
  Absorbed dose per administrated activity, Testes: 4.97E-03 mSv/MBq
  Absorbed dose per administrated activity, Thymus: 5.48E-03 mSv/MBq
  Absorbed dose per administrated activity, Thyroid: 2.49E-02 mSv/MBq
  Absorbed dose per administrated activity, Total Body: 7.67E-03 mSv/MBq
  Absorbed dose per administrated activity, Upper Large Intestine Wall: 2.01E-02 mSv/MBq
  Absorbed dose per administrated activity, Urinary Bladder Wall: 5.29E-03 mSv/MBq
  Absorbed dose per administrated activity, Uterus: 6.27E-03 mSv/MBq
  Effective Dose Equivalent: 1.71E-02 mSv/MBq
  Effective dose: 0.0109 mSv/MBq and 1.09E-02 mSv/MBq
